# Experimental data reported in patent publication US20220347093A1, “PHARMACEUTICAL COMPOSITION” (University of Fukui, priority 2019, published 2022).
# Key:
# [1] = tested on: nasal polyps specimen surgically obtained from a patient with eosinophilic sinusitis; assay: Ex vivo incubation of nasal polyps specimens, weight change before/after about 24 h; design: species or system human; details: 37° C.; for (A) − (B) (mg), nasal polyps weight decrease / After incubation (mg) (B), nasal polyps specimen weight: single case; for nasal polyps weight change before and after incubation (paired t-test): 6 cases
# Experimental: (§1) A heparinoid (organic sulfate group 25.8 to 37.3% w/w, D-glucuronic acid 19.0 to 24.0% w/w, Maruho Co., Ltd.) dried under reduced pressure was dissolved in saline to prepare heparinoid solutions (0.3, 30 and 3,000 μg/mL). A nasal polyps specimen was surgically obtained from a patient with eosinophilic sinusitis, cut into pieces of about 5 mm squares, wiped off the moisture and measured the weight. Each specimen was transferred to a 12-well plate. The specimen in the plate was incubated with 1 mL of saline or heparinoid solutions at 37° C. for about 24 hours. Then, after wiping off the moisture in the incubated specimen taken from the plate, the weight of the specimen was measured. The difference between specimen weights before and after incubation was used as an index of a nasal polyps reduction effect. The saline group and heparinoid solution groups (different in concentration) of FIG. 1 each consisted of 6 cases.
# The reduction effects of heparinoid solutions (0.003, 0.03, 0.3 and 30 μg/mL) on nasal polyps were evaluated in the same method as in Example 1. The saline group and heparinoid solution groups (different in concentration) of FIG. 2 each consisted of 6 cases.
# A PPS solution (0.003 μg/mL) was prepared and the reduction effect on nasal polyps was evaluated in the same method as in Example 1. PPS used herein was sodium pentosan polysulfate (weight average molecular weight 4,000 to 6,500, sulfur content 13.0 to 20.0% w/w, glucuronic acid content 2.5 to 4.0% w/w) manufactured by Molclone Labs. The saline group and PPS solution group of FIG. 3 each consisted of 6 cases.
# The following 11 types of polysaccharide solutions (polysaccharides except glucomannan: 300 μg/mL; glucomannan 30 μg/mL) were prepared and the reduction effect on nasal polyps was evaluated in the same method as in Example 1. The saline groups and polysaccharide solution groups (different in concentration) of Tables 1 to 4 each consisted of a single case. • Chondroitin (chondroitin sodium, weight average molecular weight 42,351, sulfate group content 2.6%, manufactured by Maruho Co., Ltd.) • Low-molecular chondroitin sulfate (low-molecular sodium chondroitin sulfate, weight average molecular weight 11,500, sulfate group content 8.9%, manufactured by Maruho Co., Ltd.) • Chondroitin sulfate A (sodium chondroitin sulfate A, manufactured by PG Research) • Dermatan sulfate (sodium dermatan sulfate, manufactured by Tokyo Chemical Industry Co., Ltd.) • Chondroitin sulfate C (sodium chondroitin sulfate C, manufactured by PG Research) • Glucomannan (Propol A, manufactured by Shimizu Chemical Corporation) • Dextran sulfate (sodium dextran sulfate 500,000, manufactured by FUJIFILM Wako Pure Chemical Corporation) • Keratan sulfate (sodium keratan sulfate, manufactured by PG Research) • Inulin (manufactured by Tokyo Chemical Industry Co., Ltd.) • Heparan sulfate (manufactured by Toronto Research Chemicals, Inc.) • Xylo-oligosaccharide (xylo-hexaose, manufactured by Megazyme)
# [2] = tested on: nasal polyps surgically obtained from patients with eosinophilic sinusitis; details: Non Patent Literature 5; cited from earlier work
# [3] = tested on: rat nasal mucosal inflammation models; details: Non Patent Literature 4; cited from earlier work
# [4] = tested on: nasal polyps specimen surgically obtained from a patient with non-eosinophilic sinusitis; assay: Ex vivo incubation of nasal polyps specimens, weight change before/after about 24 h; design: species or system human; details: single case; for (A) − (B) (mg), nasal polyps weight decrease / After incubation (mg) (B), nasal polyps specimen weight: 37° C., about 24 hours; for nasal polyps weight change before and after incubation, in words: 0.03, 0.3, 30 and 300 μg/mL, individually
# Experimental: as §1
# In the same method as in Example 1, heparinoid solutions and PPS solutions (0.03, 0.3, 30 and 300 μg/mL, respectively) were prepared and the reduction effect on nasal polyps specimen surgically obtained from a patient with non-eosinophilic sinusitis was evaluated. The heparinoid and PPS were also the same as those used in Example 1 and Example 3, respectively. The saline groups, heparinoid solution group and PPS solution groups of Table 5 each consisted of a single case.
compound,measurement,setting,value
"OC1OC[C@@H](O[C@@H]2OC[C@@H](O[C@@H]3OC[C@@H](O[C@@H]4OC[C@@H](O[C@@H]5OC[C@@H](O[C@@H]6OC[C@@H](O)[C@H](O)[C@H]6O)[C@H](O)[C@H]5O)[C@H](O)[C@H]4O)[C@H](O)[C@H]3O)[C@H](O)[C@H]2O)[C@H](O)[C@H]1O (stereo partly shown) [Xylo-oligosaccharide, xylo-hexaose]","(A) − (B) (mg), nasal polyps weight decrease",[1]; 300 μg/mL in saline,17.9 mg
same,"After incubation (mg) (B), nasal polyps specimen weight",[1]; 300 μg/mL in saline,110.4 mg
Glucomannan,"(A) − (B) (mg), nasal polyps weight decrease",[1]; 30 μg/mL in saline,19.0 mg
same,"After incubation (mg) (B), nasal polyps specimen weight",[1]; 30 μg/mL in saline,81.0 mg
Heparan sulfate,"(A) − (B) (mg), nasal polyps weight decrease",[1]; 300 μg/mL in saline,25.5 mg
same,"After incubation (mg) (B), nasal polyps specimen weight",[1]; 300 μg/mL in saline,103.0 mg
Inulin,"(A) − (B) (mg), nasal polyps weight decrease",[1]; 300 μg/mL in saline,46.1 mg
same,"After incubation (mg) (B), nasal polyps specimen weight",[1]; 300 μg/mL in saline,85.3 mg
chondroitin sodium,"(A) − (B) (mg), nasal polyps weight decrease",[1]; 300 μg/mL in saline,32.8 mg
same,"After incubation (mg) (B), nasal polyps specimen weight",[1]; 300 μg/mL in saline,122.0 mg
heparin,reduction effect on nasal polyps,[2],did not show a reduction effect
same,neutrophil infiltration,[3],significantly suppress
same,production of mucus,[3],significantly suppress
heparinoid,"(A) − (B) (mg), nasal polyps weight decrease",[4]; 0.03 μg/mL,35.0 mg
same,"After incubation (mg) (B), nasal polyps specimen weight",[4]; 0.03 μg/mL,276.0 mg
same,"(A) − (B) (mg), nasal polyps weight decrease",[4]; 0.3 μg/mL,28.0 mg
same,"After incubation (mg) (B), nasal polyps specimen weight",[4]; 0.3 μg/mL,181.0 mg
same,"(A) − (B) (mg), nasal polyps weight decrease",[4]; 30 μg/mL,66.0 mg
same,"After incubation (mg) (B), nasal polyps specimen weight",[4]; 30 μg/mL,169.0 mg
same,"(A) − (B) (mg), nasal polyps weight decrease",[4]; 300 μg/mL,30.0 mg
same,"After incubation (mg) (B), nasal polyps specimen weight",[4]; 300 μg/mL,246.0 mg
same,"nasal polyps weight change before and after incubation, in words",[4],remarkably decreased
same,nasal polyps weight change before and after incubation (paired t-test),[1]; 0.003 μg/mL,decreased significantly
same,nasal polyps weight change before and after incubation (paired t-test),[1]; 0.03 μg/mL,decreased significantly
same,nasal polyps weight change before and after incubation (paired t-test),[1]; 0.3 μg/mL,decreased significantly
same,nasal polyps weight change before and after incubation (paired t-test),[1]; 30 μg/mL,decreased significantly
same,nasal polyps weight change before and after incubation (paired t-test),"[1]; 3,000 μg/mL",decreased significantly
low-molecular sodium chondroitin sulfate [Low-molecular chondroitin sulfate],"(A) − (B) (mg), nasal polyps weight decrease",[1]; 300 μg/mL in saline,25.0 mg
same,"After incubation (mg) (B), nasal polyps specimen weight",[1]; 300 μg/mL in saline,116.0 mg
sodium chondroitin sulfate A,"(A) − (B) (mg), nasal polyps weight decrease",[1]; 300 μg/mL in saline,38.0 mg
same,"After incubation (mg) (B), nasal polyps specimen weight",[1]; 300 μg/mL in saline,68.0 mg
sodium chondroitin sulfate C,"(A) − (B) (mg), nasal polyps weight decrease",[1]; 300 μg/mL in saline,44.0 mg
same,"After incubation (mg) (B), nasal polyps specimen weight",[1]; 300 μg/mL in saline,80.0 mg
sodium dermatan sulfate,"(A) − (B) (mg), nasal polyps weight decrease",[1]; 300 μg/mL in saline,13.1 mg
same,"After incubation (mg) (B), nasal polyps specimen weight",[1]; 300 μg/mL in saline,118.5 mg
"sodium dextran sulfate 500,000","(A) − (B) (mg), nasal polyps weight decrease",[1]; 300 μg/mL in saline,22.0 mg
same,"After incubation (mg) (B), nasal polyps specimen weight",[1]; 300 μg/mL in saline,120.0 mg
sodium keratan sulfate,"(A) − (B) (mg), nasal polyps weight decrease",[1]; 300 μg/mL in saline,18.3 mg
same,"After incubation (mg) (B), nasal polyps specimen weight",[1]; 300 μg/mL in saline,147.3 mg
sodium pentosan polysulfate [PPS],"(A) − (B) (mg), nasal polyps weight decrease",[4]; 0.03 μg/mL,19.0 mg
same,"After incubation (mg) (B), nasal polyps specimen weight",[4]; 0.03 μg/mL,214.0 mg
same,"(A) − (B) (mg), nasal polyps weight decrease",[4]; 0.3 μg/mL,48.0 mg
same,"After incubation (mg) (B), nasal polyps specimen weight",[4]; 0.3 μg/mL,225.0 mg
same,"(A) − (B) (mg), nasal polyps weight decrease",[4]; 30 μg/mL,13.0 mg
same,"After incubation (mg) (B), nasal polyps specimen weight",[4]; 30 μg/mL,207.0 mg
same,"(A) − (B) (mg), nasal polyps weight decrease",[4]; 300 μg/mL,10.0 mg
same,"After incubation (mg) (B), nasal polyps specimen weight",[4]; 300 μg/mL,115.0 mg
same,"nasal polyps weight change before and after incubation, in words",[4],remarkably decreased
same,nasal polyps weight change before and after incubation (paired t-test),[1]; 0.003 μg/mL,decreased significantly
